{"source": "paper PMC3523469", "about": "(Investigational New Drugs, 2012)", "key": {"[1]": {"assay": "Plasma pharmacokinetics after single", "assay_type": "in vivo, Japanese patients", "conditions": "for Ctrough: range (min, max) of averaged Ctrough concentrations from Day 1 of Cycles 2 to 4; for AUC(0-inf) / half-life / Cmax / Tmax: human, plasma"}, "[2]": {"conditions": "cited from earlier work"}, "[3]": {"tested_on": "human tumor xenograft models that express and/or overexpress HER family members", "conditions": "cited from earlier work"}}, "note": "Where two headings read alike, the source gives them in different places.", "data": [{"smiles": "COc1cc2ncnc(Nc3ccc(F)c(Cl)c3)c2cc1NC(=O)/C=C/CN1CCCCC1", "note": "[dacomitinib, Dacomitinib]", "values": [{"measurement": "Ctrough", "setting": "[1]; 15 mg QD", "value": "28.2 to 33.2", "unit": "ng/mL"}, {"measurement": "Ctrough", "setting": "[1]; 30 mg QD", "value": "49.0 to 56.5", "unit": "ng/mL"}, {"measurement": "Ctrough", "setting": "[1]; 45 mg QD", "value": "60.9 to 76.6", "unit": "ng/mL"}, {"measurement": "kinetics after single- and multiple-dose administration", "setting": "[1]; dose range studied, 15–45 mg", "value": "linear kinetics"}, {"measurement": "AUC(0-inf)", "setting": "[1]; oral, 15 mg", "value": 660, "unit": "ng·h/mL"}, {"measurement": "half-life", "setting": "[1]; oral, 15 mg", "value": 61.1, "unit": "h"}, {"measurement": "Cmax", "setting": "[1]; oral, 15 mg, single dose (D-9), N 3, mean (%CV)", "value": 8, "unit": "ng/mL"}, {"measurement": "Tmax", "setting": "[1]; oral, 15 mg, Tmax, multiple dose (C1D14), 15 mg QD, N 2, median (min, max)", "value": 15, "unit": "h"}, {"measurement": "Tmax", "setting": "[1]; oral, 15 mg, Tmax, single dose (D-9), N 3, median (min, max)", "value": 24, "unit": "h"}, {"measurement": "AUC(0-inf)", "setting": "[1]; oral, 30 mg", "value": 988, "unit": "ng·h/mL"}, {"measurement": "half-life", "setting": "[1]; oral, 30 mg", "value": 98, "unit": "h"}, {"measurement": "Cmax", "setting": "[1]; oral, 30 mg, multiple dose (C1D14), 30 mg QD, N 3, mean (%CV)", "value": 64.3, "unit": "ng/mL"}, {"measurement": "Cmax", "setting": "[1]; oral, 30 mg, single dose (D-9), N 3, mean (%CV)", "value": 12.2, "unit": "ng/mL"}, {"measurement": "Tmax", "setting": "[1]; oral, 30 mg, Tmax, multiple dose (C1D14), 30 mg QD, N 3, median (min, max)", "value": 4, "unit": "h"}, {"measurement": "Tmax", "setting": "[1]; oral, 30 mg, Tmax, single dose (D-9), N 3, median (min, max)", "value": 8, "unit": "h"}, {"measurement": "AUC(0-inf)", "setting": "[1]; oral, 45 mg", "value": 1600, "unit": "ng·h/mL"}, {"measurement": "half-life", "setting": "[1]; oral, 45 mg", "value": 80, "unit": "h"}, {"measurement": "Cmax", "setting": "[1]; oral, 45 mg, multiple dose (C1D14), 45 mg QD, N 6, mean (%CV)", "value": 81.2, "unit": "ng/mL"}, {"measurement": "Cmax", "setting": "[1]; oral, 45 mg, single dose (D-9), N 7, mean (%CV)", "value": 21.2, "unit": "ng/mL"}, {"measurement": "Tmax", "setting": "[1]; oral, 45 mg, Tmax, multiple dose (C1D14), 45 mg QD, N 6, median (min, max)", "value": 8, "unit": "h"}, {"measurement": "Tmax", "setting": "[1]; oral, 45 mg, Tmax, single dose (D-9), N 7, median (min, max)", "value": 6, "unit": "h"}, {"measurement": "Tmax", "setting": "[1]; po, median Tmax, single oral dose (D-9), range over the dose range of 15–45 mg", "value": "6 to 24", "unit": "h"}, {"measurement": "Cave", "setting": "[1]; multiple dose (C1D14), 30 mg QD, N 3, mean (%CV)", "value": "56.3 (22) ng/mL"}, {"measurement": "Cave", "setting": "[1]; multiple dose (C1D14), 45 mg QD, N 6, mean (%CV)", "value": "75.1 (23) ng/mL"}, {"measurement": "dose dependence of Cmax and AUCinf", "setting": "[1]; single oral dose (D-9), 15–45 mg", "value": "increased along with dose in a proportional manner"}, {"measurement": "DLT stomatitis, number of patients", "setting": "[2]; 1 each at 30 mg QD and 60 mg QD", "value": 2}, {"measurement": "maximum tolerated dose (MTD)", "setting": "[2]; Western patients, 0.5–60 mg studied", "value": 45, "unit": "mg QD"}, {"measurement": "clinically recommended phase II dose (RP2D)", "setting": "[2]; Western patients", "value": 45, "unit": "mg QD"}, {"measurement": "DLT rash, number of patients", "setting": "[2]; at 45 mg QD", "value": 2}, {"measurement": "DLT palmar–plantar erythrodysesthesia syndrome, dehydration, and diarrhea in the same patient, number of patients", "setting": "[2]; at 60 mg QD", "value": 1}, {"measurement": "antitumor effects", "setting": "[3]; tumors with EGFR-activating mutations and tumors with T790M", "value": "Antitumor effects were shown"}, {"measurement": "antitumor effects", "setting": "[3]; xenograft models that express and/or overexpress HER family members", "value": "showed antitumor effects"}]}]}
